According to patent publication US20260250290A1 (BRISTOL-MYERS SQUIBB COMPANY, priority 2023, published 2026):
Where a name gives a salt, the structure may show the parent alone.

Target: T1, SGK1 (Homo sapiens, UniProt O00141)
T1 sequence (O00141 1-431): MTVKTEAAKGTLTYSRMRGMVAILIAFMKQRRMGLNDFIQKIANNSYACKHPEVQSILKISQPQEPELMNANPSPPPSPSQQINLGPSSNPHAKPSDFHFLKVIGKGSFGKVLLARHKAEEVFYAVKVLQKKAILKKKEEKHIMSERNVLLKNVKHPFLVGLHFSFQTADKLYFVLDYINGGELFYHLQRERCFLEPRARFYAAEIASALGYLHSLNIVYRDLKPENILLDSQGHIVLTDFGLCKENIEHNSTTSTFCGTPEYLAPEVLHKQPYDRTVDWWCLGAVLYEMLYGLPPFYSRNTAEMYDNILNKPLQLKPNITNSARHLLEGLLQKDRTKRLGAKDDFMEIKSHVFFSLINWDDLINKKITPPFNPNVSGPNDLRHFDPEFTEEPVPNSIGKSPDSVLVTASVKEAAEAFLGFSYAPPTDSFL
Experiment: SGK1 inhibition Assay B (Echo mass spectrometry of phosphorylated peptide product)
Type: biochemical
Details: 60 min at room temperature
Method: 20 μl of 2 nM SGK1 were added in 20 mM Hepes+10 mM MgCl2+0015% Brij-35+4 mM DTT+0.05 mg/ml BSA and the reaction incubated for 60 min at room temperature. The enzymatic reaction was quenched by addition 10 μl of 1% Formic Acid+150 nM Internal Standard: FITC-(Ahx)KKRNRR(pS)VA^—OH (final concentration). The plates are spun down at 3700 RPM for 10 minutes to remove all precipitate. Samples were loaded on to the Sciex Echo Mass Spec attached to a Sciex 6500 equipped with ESI and was used to analyze the phosphorylated peptide product. MRM transition of product and internal standard were monitored at m/z 755 to 937.5 and m/z 757.7 to 941.3 respectively. Peak area of analyte was normalized with internal standard.
Dose response curves were generated to determine the concentration required for inhibiting 50% of the enzyme activity. Compounds were dissolved at 10 mM in dimethylsulfoxide (DMSO) and evaluated at eleven concentrations.

Row | SMILES | IC50 [nM]
1 | [2H]C([2H])([2H])N([C@H]1CC[C@@H](Oc2nc(C)sc2C(=O)N[C@@H]2CCCN(c3cc(C4=C(C)C(=O)OC4)n4ncnc(N)c34)C2)CC1)C([2H])([2H])[2H] [Example 1013, N—((R)-1-(4-amino-7-(4-methyl-5-oxo-2,5-dihydrofuran-3-yl)pyrrolo[2,1-f][1,2,4]triazin-5-yl)piperidin-3-yl)-4-(((1S,4S)-4-(bis(methyl-d3)amino)cyclohexyl)oxy)-2-methylthiazole-5-carboxamide] | 1.7
2 | Cc1nc(O[C@H]2CC[C@@H](N(C)C)CC2)c(C(=O)N[C@@H]2CCCN(c3cc(-c4ccc(C(N)=O)c(F)c4)n4ncnc(N)c34)C2)s1 [Example 937, N—((R)-1-(4-Amino-7-(4-carbamoyl-3-fluorophenyl)pyrrolo[2,1-f][1,2,4]triazin-5-yl)piperidin-3-yl)-4-(((1s,4S)-4-(dimethylamino)cyclohexyl)oxy)-2-methylthiazole-5-carboxamide] | 1
3 | COC1=C(C(=O)N[C@@H]2CCCN(c3cc(C4=CCN(C(C)=O)C4)n4ncnc(N)c34)C2)CN(C)C1=O [Example 754, (R)-N-(1-(7-(1-acetyl-2,5-dihydro-1H-pyrrol-3-yl)-4-aminopyrrolo[2,1-f][1,2,4]triazin-5-yl)piperidin-3-yl)-4-methoxy-1-methyl-5-oxo-2,5-dihydro-1H-pyrrole-3-carboxamide] | 163
4 | CC(C)N1CC2(CN(c3cccc(C(=O)N[C@@H]4CCCN(c5cc(-c6cc(F)c(-n7cnnn7)cc6F)n6ncnc(N)c56)C4)n3)C2)C1 [Example 825, (R)-N-(1-(4-amino-7-(2,5-difluoro-4-(1H-tetrazol-1-yl)phenyl)pyrrolo[2,1-f][1,2,4]triazin-5-yl)piperidin-3-yl)-6-(6-isopropyl-2,6-diazaspiro[3.3]heptan-2-yl)picolinamide] | 7

Next, values leading:

Row | IC50 [nM] | SMILES
5 | 1 | CC(=O)N1CC=C(c2cc(N3CCC[C@@H](NC(=O)c4sc(Cl)cc4OC4CCCN(C(C)C)CC4)C3)c3c(N)ncnn23)C1 (stereo partly drawn) [Example 987]
6 | 5 | CCN1[C@@H]2CCC[C@H]1C[C@H](Oc1nc(C)sc1C(=O)N[C@@H]1CCCN(c3cc(-c4ccc(=O)n(CC(F)F)n4)n4ncnc(N)c34)C1)C2 [Example 970, N—((R)-1-(4-amino-7-(1-(2,2-difluoroethyl)-6-oxo-1,6-dihydropyridazin-3-yl)pyrrolo[2,1-f][1,2,4]triazin-5-yl)piperidin-3-yl)-4-(((1R,3s,5S)-9-ethyl-9-azabicyclo[3.3.1]nonan-3-yl)oxy)-2-methylthiazole-5-carboxamide]
7 | 0.1 | CN1[C@@H]2CC[C@H]1C[C@H](Oc1cc(Cl)sc1C(=O)N[C@@H]1CCCN(c3cc(C4=CC(=O)OC4)n4ncnc(N)c34)C1)C2 [Example 927, N—((R)-1-(4-amino-7-(5-oxo-2,5-dihydrofuran-3-yl)pyrrolo[2,1-f][1,2,4]triazin-5-yl)piperidin-3-yl)-5-chloro-3-(((1R,3s,5S)-8-methyl-8-azabicyclo[3.2.1]octan-3-yl)oxy)thiophene-2-carboxamide, TFA salt]
8 | 2 | CC(=O)c1ccc(-c2cc(N3CCC[C@@H](NC(=O)c4sc(Cl)cc4O[C@@H]4C[C@H]5CC[C@@H](C4)N5C)C3)c3c(N)ncnn23)cc1F [Example 839, N-((R)-1-(7-(4-acetyl-3-fluorophenyl)-4-aminopyrrolo[2,1-f][1,2,4]triazin-5-yl)piperidin-3-yl)-5-chloro-3-(((1R,3s,5S)-8-methyl-8-azabicyclo[3.2.1]octan-3-yl)oxy)thiophene-2-carboxamide]
9 | 26 | COC(=O)N1CC=C(c2cc(N3CCC[C@@H](NC(=O)c4sc(C)nc4OC4CCN(C(C)C)CC4)C3)c3c(N)ncnn23)C1 [Example 361, Methyl (R)-3-(4-amino-5-(3-(4-((1-isopropylpiperidin-4-yl)oxy)-2-methylthiazole-5-carboxamido)piperidin-1-yl)pyrrolo[2,1-f][1,2,4]triazin-7-yl)-2,5-dihydro-1H-pyrrole-1-carboxylate]
